Experimental data published in patent US8129371B2, “Thienopyrimidine and pyrazolopyrimidine compounds and their use as mTOR kinase and PI3 kinase inhibitors” (Wyeth LLC, priority 2007, dated 2012).

Tests used:
Human mTOR (FLAG-TOR) = target: T1, Human mTOR (FLAG-TOR) (Homo sapiens, UniProt P42345); experiment: Human mTOR kinase assay with purified enzyme, DELFIA format; format: biochemical
T1 construct: FLAG
In short: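 Purified FLAG-mTOR in HEPES pH 7.4 buffer with 10 mM MnCl2 was preincubated with inhibitor and reacted 2 h at room temperature with His6-S6K substrate, then stopped with EDTA/EGTA. Phospho-T389 S6K detected by DELFIA with Eu-labelled antibody (40 ng/mL) after plate capture; inhibition computed from signal.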

PI3K [1] = target: T2, PI3K (Homo sapiens, UniProt P42336); experiment: Fluorescence polarization assay for PI3K; format: biochemical; details: PI3 Kinase α; read-out: PI3 Kinase α IC50
T2 construct: PI3 Kinase α IC50; other: PI3 Kinase α; other: PI3 Kinase α isoform, fluorescence polarization
In short: (§1)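 PI3K was preincubated with compound (final DMSO 1%), and the reaction was started with PIP2/ATP substrate and run 30–60 min. It was stopped with a detector mix giving 10 nM red probe and 70 nM GST-GRP.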

PI3K [2] = target: T3, PI3K (Homo sapiens, UniProt P48736); experiment: Fluorescence polarization assay for PI3K; format: biochemical; details: PI3 Kinase γ; read-out: PI3 Kinase γ IC50
T3 construct: PI3 Kinase γ IC50; other: PI3 Kinase γ; other: PI3 Kinase γ isoform, fluorescence polarization
In short: as §1

prostate line LNCap = experiment: In vitro cell culture growth assay (MTS), LNCap; format: cell-based; details: Homo sapiens, LNCaP, 72 h, LNCap cells, three days after drug treatment
In short: (§2)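 Following a one-day attachment period, cells received inhibitors for 3 days. MTS metabolism by viable cells was quantified at 490 nm absorbance and converted to percent of same-plate vehicle control growth.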

breast line MDA468 = experiment: In vitro cell culture growth assay (MTS), MDA468; format: cell-based; details: Homo sapiens, 72 h, MDA468 cells, three days after drug treatment
In short: as §2

T3 sequence (P48736 whole entry, canonical isoform): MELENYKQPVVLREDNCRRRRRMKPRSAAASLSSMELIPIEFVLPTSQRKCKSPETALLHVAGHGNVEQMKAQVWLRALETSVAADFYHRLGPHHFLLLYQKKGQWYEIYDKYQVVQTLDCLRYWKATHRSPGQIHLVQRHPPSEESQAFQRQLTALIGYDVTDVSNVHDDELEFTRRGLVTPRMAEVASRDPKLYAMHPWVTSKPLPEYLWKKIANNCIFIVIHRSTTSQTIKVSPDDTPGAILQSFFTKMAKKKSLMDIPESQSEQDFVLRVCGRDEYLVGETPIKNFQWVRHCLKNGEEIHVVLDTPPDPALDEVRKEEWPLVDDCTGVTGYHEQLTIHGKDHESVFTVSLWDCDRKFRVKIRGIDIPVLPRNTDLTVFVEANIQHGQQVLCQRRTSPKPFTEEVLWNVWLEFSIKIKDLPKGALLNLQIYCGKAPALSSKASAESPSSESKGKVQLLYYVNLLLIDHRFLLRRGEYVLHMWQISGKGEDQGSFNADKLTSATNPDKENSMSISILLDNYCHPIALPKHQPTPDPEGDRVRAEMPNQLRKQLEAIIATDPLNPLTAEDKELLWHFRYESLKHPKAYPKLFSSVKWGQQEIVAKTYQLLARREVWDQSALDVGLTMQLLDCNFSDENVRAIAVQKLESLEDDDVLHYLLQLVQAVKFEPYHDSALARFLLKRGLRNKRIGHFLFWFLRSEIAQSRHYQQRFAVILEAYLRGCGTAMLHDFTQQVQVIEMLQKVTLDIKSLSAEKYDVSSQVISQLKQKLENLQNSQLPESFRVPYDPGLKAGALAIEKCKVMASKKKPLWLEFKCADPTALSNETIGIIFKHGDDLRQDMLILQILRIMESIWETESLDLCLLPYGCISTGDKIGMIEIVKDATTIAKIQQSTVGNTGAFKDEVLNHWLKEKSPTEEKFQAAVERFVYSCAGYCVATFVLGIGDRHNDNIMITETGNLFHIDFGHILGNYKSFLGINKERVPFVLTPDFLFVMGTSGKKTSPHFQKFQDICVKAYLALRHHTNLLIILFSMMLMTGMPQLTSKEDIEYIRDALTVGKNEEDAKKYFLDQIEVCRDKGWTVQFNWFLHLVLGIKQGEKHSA
T2 sequence (P42336 whole entry, canonical isoform): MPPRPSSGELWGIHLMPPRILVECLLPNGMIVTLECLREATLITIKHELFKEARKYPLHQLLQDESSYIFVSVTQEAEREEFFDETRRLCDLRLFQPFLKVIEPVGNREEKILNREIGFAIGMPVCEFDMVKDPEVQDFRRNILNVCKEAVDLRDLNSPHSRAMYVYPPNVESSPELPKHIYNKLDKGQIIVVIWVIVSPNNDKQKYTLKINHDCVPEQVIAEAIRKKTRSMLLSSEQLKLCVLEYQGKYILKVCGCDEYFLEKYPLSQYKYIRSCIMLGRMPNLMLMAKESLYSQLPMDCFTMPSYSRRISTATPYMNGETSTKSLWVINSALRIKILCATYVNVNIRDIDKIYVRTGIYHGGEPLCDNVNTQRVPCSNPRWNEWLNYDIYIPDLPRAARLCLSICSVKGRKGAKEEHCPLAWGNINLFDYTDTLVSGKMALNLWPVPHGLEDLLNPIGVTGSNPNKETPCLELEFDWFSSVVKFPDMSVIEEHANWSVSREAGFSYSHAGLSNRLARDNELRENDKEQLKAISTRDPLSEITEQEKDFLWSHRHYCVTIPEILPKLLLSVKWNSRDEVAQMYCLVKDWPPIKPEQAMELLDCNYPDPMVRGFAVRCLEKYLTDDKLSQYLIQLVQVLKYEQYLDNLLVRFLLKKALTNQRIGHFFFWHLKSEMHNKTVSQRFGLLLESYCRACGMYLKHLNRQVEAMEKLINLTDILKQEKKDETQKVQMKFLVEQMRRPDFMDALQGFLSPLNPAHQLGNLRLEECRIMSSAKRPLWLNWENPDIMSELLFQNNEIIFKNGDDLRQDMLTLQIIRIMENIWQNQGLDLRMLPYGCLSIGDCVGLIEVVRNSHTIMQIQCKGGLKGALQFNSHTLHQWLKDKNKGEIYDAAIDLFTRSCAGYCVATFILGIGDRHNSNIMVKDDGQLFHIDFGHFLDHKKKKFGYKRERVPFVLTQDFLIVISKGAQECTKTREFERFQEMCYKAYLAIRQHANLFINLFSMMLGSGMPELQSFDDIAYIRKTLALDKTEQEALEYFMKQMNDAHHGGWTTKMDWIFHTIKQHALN

SMILES | IC50 (Human mTOR (FLAG-TOR)) [nM] | IC50 (PI3K [1]) [nM] | IC50 (PI3K [2]) [nM] | IC50 (prostate line LNCap) [nM] | IC50 (breast line MDA468) [nM]
O=C(NCCO)Nc1ccc(-c2nc(N3CC4CCC(C3)O4)c3cnn(C4CCC5(CC4)OCCO5)c3n2)cc1 [Example 125, 1-{4-[1-(1,4-dioxaspiro[4.5]dec-8-yl)-4-(8-oxa-3-azabicyclo[3.2.1]oct-3-yl)-1H-pyrazolo[3,4-d]pyrimidin-6-yl]phenyl}-3-(2-hydroxyethyl)urea] | 0.235 | 1350 | > 10000 | 8 | 40
O=C(Nc1ccc(-c2nc(N3CC4CCC(C3)O4)c3cnn(C4CCC5(CC4)OCCO5)c3n2)cc1)NC1CC1 [Example 126, 1-cyclopropyl-3-{4-[1-(1,4-dioxaspiro[4.5]dec-8-yl)-4-(8-oxa-3-azabicyclo[3.2.1]oct-3-yl)-1H-pyrazolo[3,4-d]pyrimidin-6-yl]phenyl}urea] | 0.22 | 12000 | > 10000 | 2 | 58
O=C(Nc1ccccc1)Nc1ccc(-c2nc(N3CC4CCC(C3)O4)c3cnn(C4CCC5(CC4)OCCO5)c3n2)cc1 [Example 127, 1-{4-[1-(1,4-dioxaspiro[4.5]dec-8-yl)-4-(8-oxa-3-azabicyclo[3.2.1]oct-3-yl)-1H-pyrazolo[3,4-d]pyrimidin-6-yl]phenyl}-3-phenylurea] | 0.155 | 353 | > 10000 | 4 | 18
O=C(Nc1ccncc1)Nc1ccc(-c2nc(N3CC4CCC(C3)O4)c3cnn(C4CCC5(CC4)OCCO5)c3n2)cc1 [Example 128, 1-{4-[1-(1,4-dioxaspiro[4.5]dec-8-yl)-4-(8-oxa-3-azabicyclo[3.2.1]oct-3-yl)-1H-pyrazolo[3,4-d]pyrimidin-6-yl]phenyl}-3-pyridin-4-ylurea] | 0.125 | 220 | 1930 | < 1 | 1
O=C(Nc1ccc(-c2nc(N3CC4CCC(C3)O4)c3cnn(C4CCC5(CC4)OCCO5)c3n2)cc1)OCC(F)(F)F [Example 129, 2,2,2-trifluoroethyl {4-[1-(1,4-dioxaspiro[4.5]dec-8-yl)-4-(8-oxa-3-azabicyclo[3.2.1]oct-3-yl)-1H-pyrazolo[3,4-d]pyrimidin-6-yl]phenyl}carbamate] | 10.4 | > 10000 | > 10000 | 800 | 4900
O=C(Nc1ccc(-c2nc(N3CC4CCC(C3)O4)c3cnn(C4CCC5(CC4)OCCO5)c3n2)cc1)OCCF [Example 130, 2-fluoroethyl {4-[1-(1,4-dioxaspiro[4.5]dec-8-yl)-4-(8-oxa-3-azabicyclo[3.2.1]oct-3-yl)-1H-pyrazolo[3,4-d]pyrimidin-6-yl]phenyl}carbamate] | 1.5 | > 10000 | > 10000 | 45 | 800
O=C1OCCN1c1ccc(-c2nc(N3CC4CCC(C3)O4)c3cnn(C4CCC5(CC4)OCCO5)c3n2)cc1 [Example 131, 3-{4-[1-(1,4-dioxaspiro[4.5]dec-8-yl)-4-(8-oxa-3-azabicyclo[3.2.1]oct-3-yl)-1H-pyrazolo[3,4-d]pyrimidin-6-yl]phenyl}-1,3-oxazolidin-2-one] | 635 | > 10000 | > 10000 | > 60000 | > 60000
OCCNc1ccc(-c2nc(N3CC4CCC(C3)O4)c3cnn(C4CCC5(CC4)OCCO5)c3n2)cc1 [Example 132, 2-({4-[1-(1,4-dioxaspiro[4.5]dec-8-yl)-4-(8-oxa-3-azabicyclo[3.2.1]oct-3-yl)-1H-pyrazolo[3,4-d]pyrimidin-6-yl]phenyl}amino)ethanol] | 15.5 | > 10000 | > 10000 | 580 | 5000
CN(C)CCNC(=O)Nc1ccc(-c2nc(N3CC4CCC(C3)O4)c3cnn(C4CCC5(CC4)OCCO5)c3n2)cc1 [Example 133, 1-[2-(dimethylamino)ethyl]-3-{4-[1-(1,4-dioxaspiro[4.5]dec-8-yl)-4-(8-oxa-3-azabicyclo[3.2.1]oct-3-yl)-1H-pyrazolo[3,4-d]pyrimidin-6-yl]phenyl}urea] | 18.5 | 905 | 7640 | 90 | 700
